# Source: ChEMBL document CHEMBL4393707, “Synthesis and evaluation of new quinazolin-4(3H)-one derivatives as potent antibacterial agents against multidrug resistant Staphylococcus aureus and Mycobacterium tuberculosis” (Eur J Med Chem, 2019)
# How the values were obtained:
# Acinetobacter baumannii = experiment: Antibacterial activity against Acinetobacter baumannii BAA1605 incubated for 16 to 18 hrs by broth microdilution assay; format: functional
# Staphylococcus aureus [1] = experiment: Synergistic antibacterial activity against Staphylococcus aureus ATCC 29213 incubated for 24 hrs in presence of gentamycin by checkerboard titration assay; format: functional; conditions: ATCC 29213, 24 h
# Staphylococcus aureus [2] = experiment: Antibacterial activity against vancomycin-resistant Staphylococcus aureus VRS12 incubated for 16 to 18 hrs by broth microdilution assay; format: functional
# Staphylococcus aureus [3] = experiment: Antibacterial activity against vancomycin-resistant Staphylococcus aureus VRS4 incubated for 16 to 18 hrs by broth microdilution assay; format: functional
# Staphylococcus aureus [4] = experiment: Antibacterial activity against methicillin-resistant Staphylococcus aureus NR10194 incubated for 16 to 18 hrs by broth microdilution assay; format: functional
# Staphylococcus aureus [5] = experiment: Antibacterial activity against methicillin-resistant Staphylococcus aureus NR10191 incubated for 16 to 18 hrs by broth microdilution assay; format: functional
# Staphylococcus aureus [6] = experiment: Antibacterial activity against methicillin-resistant Staphylococcus aureus NR10193 incubated for 16 to 18 hrs by broth microdilution assay; format: functional
# Staphylococcus aureus [7] = experiment: Antibacterial activity against methicillin-resistant Staphylococcus aureus NR10186 incubated for 16 to 18 hrs by broth microdilution assay; format: functional
# Staphylococcus aureus [8] = experiment: Antibacterial activity against methicillin-resistant Staphylococcus aureus NR100 incubated for 16 to 18 hrs by broth microdilution assay; format: functional
# Staphylococcus aureus [9] = experiment: Antibacterial activity against methicillin-resistant Staphylococcus aureus NR10192 incubated for 16 to 18 hrs by broth microdilution assay; format: functional
# Staphylococcus aureus [10] = experiment: Antibacterial activity against methicillin-resistant Staphylococcus aureus NR119 incubated for 16 to 18 hrs by broth microdilution assay; format: functional
# Staphylococcus aureus [11] = experiment: Antibacterial activity against methicillin-resistant Staphylococcus aureus NR10129 incubated for 16 to 18 hrs by broth microdilution assay; format: functional
# Staphylococcus aureus [12] = experiment: Antibacterial activity against methicillin-resistant Staphylococcus aureus NR10198 incubated for 16 to 18 hrs by broth microdilution assay; format: functional
# Escherichia coli = experiment: Antibacterial activity against Escherichia coli ATCC 25922 incubated for 16 to 18 hrs by broth microdilution assay; format: functional
# Pseudomonas aeruginosa = experiment: Antibacterial activity against Pseudomonas aeruginosa ATCC 27853 incubated for 16 to 18 hrs by broth microdilution assay; format: functional
# [13] = Cytotoxicity against African green monkey Vero cells assessed as reduction in cell viability after 72 hrs by MTT assay; format: cell-based; conditions: chlorocebus sabaeus
# Staphylococcus aureus [14] = experiment: Antibacterial activity against methicillin-susceptible Staphylococcus aureus ATCC 29213 incubated for 16 to 18 hrs by broth microdilution assay; format: functional
# Staphylococcus aureus [15] = experiment: Synergistic antibacterial activity against Staphylococcus aureus ATCC 29213 incubated for 24 hrs in presence of levofloxacin by checkerboard titration assay; format: functional; conditions: ATCC 29213, 24 h
# Staphylococcus aureus [16] = experiment: Synergistic antibacterial activity against Staphylococcus aureus ATCC 29213 incubated for 24 hrs in presence of rifampicin by checkerboard titration assay; format: functional; conditions: ATCC 29213, 24 h
# Staphylococcus aureus [17] = experiment: Synergistic antibacterial activity against Staphylococcus aureus ATCC 29213 incubated for 24 hrs in presence of vancomycin by checkerboard titration assay; format: functional; conditions: ATCC 29213, 24 h
# Staphylococcus aureus [18] = experiment: Potentiation of ceftazidime-induced antibacterial activity against Staphylococcus aureus ATCC 29213 assessed as ceftazidime MIC incubated for 24 hrs by checkerboard titration assay (reference value: […] ug/ml); format: functional; conditions: ATCC 29213, 24 h
# Staphylococcus aureus [19] = experiment: Potentiation of daptomycin-induced antibacterial activity against Staphylococcus aureus ATCC 29213 assessed as daptomycin MIC incubated for 24 hrs by checkerboard titration assay (reference value: 0.5 ug/ml); format: functional; conditions: ATCC 29213, 24 h
# Staphylococcus aureus [20] = experiment: Potentiation of gentamycin-induced antibacterial activity against Staphylococcus aureus ATCC 29213 assessed as gentamycin MIC incubated for 24 hrs by checkerboard titration assay (reference value: 0.25 ug/ml); format: functional; conditions: ATCC 29213, 24 h
# Staphylococcus aureus [21] = experiment: Potentiation of linezolid-induced antibacterial activity against Staphylococcus aureus ATCC 29213 assessed as linezolid MIC incubated for 24 hrs by checkerboard titration assay (reference value: 2 ug/ml); format: functional; conditions: ATCC 29213, 24 h
# Staphylococcus aureus [22] = experiment: Potentiation of meropenem-induced antibacterial activity against Staphylococcus aureus ATCC 29213 assessed as meropenem MIC incubated for 24 hrs by checkerboard titration assay (reference value: 0.25 ug/ml); format: functional; conditions: ATCC 29213, 24 h
# Staphylococcus aureus [23] = experiment: Potentiation of minocycline-induced antibacterial activity against Staphylococcus aureus ATCC 29213 assessed as minocycline MIC incubated for 24 hrs by checkerboard titration assay (reference value: 0.125 ug/ml); format: functional; conditions: ATCC 29213, 24 h
# Staphylococcus aureus [24] = experiment: Potentiation of vancomycin-induced antibacterial activity against Staphylococcus aureus ATCC 29213 assessed as vancomycin MIC incubated for 24 hrs by checkerboard titration assay (reference value: 1 ug/ml); format: functional; conditions: ATCC 29213, 24 h
# Staphylococcus aureus [25] = experiment: Synergistic antibacterial activity against Staphylococcus aureus ATCC 29213 assessed as FIC incubated for 24 hrs in presence of ceftazidime by checkerboard titration assay; format: functional
# Staphylococcus aureus [26] = experiment: Synergistic antibacterial activity against Staphylococcus aureus ATCC 29213 assessed as FIC incubated for 24 hrs in presence of daptomycin by checkerboard titration assay; format: functional
# Staphylococcus aureus [27] = experiment: Synergistic antibacterial activity against Staphylococcus aureus ATCC 29213 assessed as FIC incubated for 24 hrs in presence of minocycline by checkerboard titration assay; format: functional
# Staphylococcus aureus [28] = experiment: Synergistic antibacterial activity against Staphylococcus aureus ATCC 29213 assessed as FIC incubated for 24 hrs in presence of rifampicin by checkerboard titration assay; format: functional
# Staphylococcus aureus [29] = experiment: Synergistic antibacterial activity against Staphylococcus aureus ATCC 29213 assessed as FIC incubated for 24 hrs in presence of vancomycin by checkerboard titration assay; format: functional
# Staphylococcus aureus [30] = experiment: Potentiation of ceftazidime-induced antibacterial activity against Staphylococcus aureus ATCC 29213 assessed as FIC incubated for 24 hrs by checkerboard titration assay; format: functional
# Staphylococcus aureus [31] = experiment: Potentiation of daptomycin-induced antibacterial activity against Staphylococcus aureus ATCC 29213 assessed as FIC incubated for 24 hrs by checkerboard titration assay; format: functional
# Staphylococcus aureus [32] = experiment: Potentiation of gentamycin-induced antibacterial activity against Staphylococcus aureus ATCC 29213 assessed as FIC incubated for 24 hrs by checkerboard titration assay; format: functional
# Staphylococcus aureus [33] = experiment: Potentiation of levofloxacin-induced antibacterial activity against Staphylococcus aureus ATCC 29213 assessed as FIC incubated for 24 hrs by checkerboard titration assay; format: functional
# Staphylococcus aureus [34] = experiment: Potentiation of rifampicin-induced antibacterial activity against Staphylococcus aureus ATCC 29213 assessed as FIC incubated for 24 hrs by checkerboard titration assay; format: functional
# Staphylococcus aureus [35] = experiment: Potentiation of vancomycin-induced antibacterial activity against Staphylococcus aureus ATCC 29213 assessed as FIC incubated for 24 hrs by checkerboard titration assay; format: functional
# Staphylococcus aureus [36] = experiment: Synergistic antibacterial activity against Staphylococcus aureus ATCC 29213 assessed as sum of FIC for test compound in presence of ceftazidime and FIC for ceftazidime in presence of test compound incubated for 24 hrs by checkerboard titration assay; format: functional
# Staphylococcus aureus [37] = experiment: Synergistic antibacterial activity against Staphylococcus aureus ATCC 29213 assessed as sum of FIC for test compound in presence of gentamycin and FIC for gentamycin in presence of test compound incubated for 24 hrs by checkerboard titration assay; format: functional
# Staphylococcus aureus [38] = experiment: Synergistic antibacterial activity against Staphylococcus aureus ATCC 29213 assessed as sum of FIC for test compound in presence of vancomycin and FIC for vancomycin in presence of test compound incubated for 24 hrs by checkerboard titration assay; format: functional
structure (smiles),measurement,setting,value
N#Cc1ccc(/C=C/c2nc3ccccc3c(=O)n2-c2ccc(C(=O)O)c(O)c2)cc1,MIC,Acinetobacter baumannii,> 64 mg/L
same,MIC,Staphylococcus aureus [1],0.0019 mg/L
same,MIC,Staphylococcus aureus [2],0.125 mg/L
same,MIC,Staphylococcus aureus [3],0.125 mg/L
same,MIC,Staphylococcus aureus [4],< 0.125 mg/L
same,MIC,Staphylococcus aureus [5],< 0.125 mg/L
same,MIC,Staphylococcus aureus [6],< 0.125 mg/L
same,MIC,Staphylococcus aureus [7],< 0.125 mg/L
same,MIC,Staphylococcus aureus [8],0.125 to 0.25 mg/L
same,MIC,Staphylococcus aureus [9],< 0.125 mg/L
same,MIC,Staphylococcus aureus [10],0.125 to 0.25 mg/L
same,MIC,Staphylococcus aureus [11],< 0.125 mg/L
same,MIC,Staphylococcus aureus [12],< 0.125 mg/L
same,MIC,Escherichia coli,> 64 mg/L
same,MIC,Pseudomonas aeruginosa,> 64 mg/L
same,CC50 at 72 h,[13],> 5 mg/L
same,MIC,Staphylococcus aureus [14],< 0.125 mg/L
same,MIC,Staphylococcus aureus [15],0.0019 mg/L
same,MIC,Staphylococcus aureus [16],0.0019 mg/L
same,MIC,Staphylococcus aureus [17],0.0019 mg/L
same,MIC,Staphylococcus aureus [18],0.0312 mg/L
same,MIC,Staphylococcus aureus [19],0.0019 mg/L
same,MIC,Staphylococcus aureus [20],0.0019 mg/L
same,MIC,Staphylococcus aureus [21],0.0075 mg/L
same,MIC,Staphylococcus aureus [22],0.0009 mg/L
same,MIC,Staphylococcus aureus [23],0.0009 mg/L
same,MIC,Staphylococcus aureus [24],0.0039 mg/L
same,FIC,Staphylococcus aureus [25],0.032
same,FIC,Staphylococcus aureus [26],0.032
same,FIC,Staphylococcus aureus [27],0.032
same,FIC,Staphylococcus aureus [28],0.032
same,FIC,Staphylococcus aureus [29],0.032
same,FIC,Staphylococcus aureus [30],0.0019
same,FIC,Staphylococcus aureus [31],0.003
same,FIC,Staphylococcus aureus [32],0.007
same,FIC,Staphylococcus aureus [33],0.003
same,FIC,Staphylococcus aureus [34],0.002
same,FIC,Staphylococcus aureus [35],0.003
same,FIC,Staphylococcus aureus [36],0.034
same,FIC,Staphylococcus aureus [37],0.04
same,FIC,Staphylococcus aureus [38],0.036
N#Cc1ccc(/C=C/c2nc3cccc(F)c3c(=O)n2-c2cccc(O)c2)cc1,MIC,Acinetobacter baumannii,> 64 mg/L
same,MIC,Staphylococcus aureus [1],0.0078 mg/L
same,MIC,Staphylococcus aureus [2],0.125 mg/L
same,MIC,Staphylococcus aureus [3],0.125 mg/L
same,MIC,Staphylococcus aureus [4],0.125 to 0.25 mg/L
same,MIC,Staphylococcus aureus [5],< 0.125 mg/L
same,MIC,Staphylococcus aureus [6],< 0.125 mg/L
same,MIC,Staphylococcus aureus [7],< 0.125 mg/L
same,MIC,Staphylococcus aureus [8],0.5 mg/L
same,MIC,Staphylococcus aureus [9],< 0.125 mg/L
same,MIC,Staphylococcus aureus [10],< 0.125 mg/L
same,MIC,Staphylococcus aureus [11],< 0.125 mg/L
same,MIC,Staphylococcus aureus [12],< 0.125 mg/L
same,MIC,Escherichia coli,> 64 mg/L
same,MIC,Pseudomonas aeruginosa,> 64 mg/L
same,CC50 at 72 h,[13],5 to 100 mg/L
same,MIC,Staphylococcus aureus [14],< 0.125 mg/L
same,MIC,Staphylococcus aureus [15],0.0078 mg/L
same,MIC,Staphylococcus aureus [16],0.0078 mg/L
same,MIC,Staphylococcus aureus [17],0.0078 mg/L
same,MIC,Staphylococcus aureus [18],0.0312 mg/L
same,MIC,Staphylococcus aureus [19],0.0019 mg/L
same,MIC,Staphylococcus aureus [20],0.0019 mg/L
same,MIC,Staphylococcus aureus [21],0.0075 mg/L
same,MIC,Staphylococcus aureus [22],0.0009 mg/L
same,MIC,Staphylococcus aureus [23],0.0009 mg/L
same,MIC,Staphylococcus aureus [24],0.0039 mg/L
same,FIC,Staphylococcus aureus [25],0.0625
same,FIC,Staphylococcus aureus [26],0.0625
same,FIC,Staphylococcus aureus [27],0.0625
same,FIC,Staphylococcus aureus [28],0.0625
same,FIC,Staphylococcus aureus [29],0.0625
same,FIC,Staphylococcus aureus [30],0.0039
same,FIC,Staphylococcus aureus [31],0.0019
same,FIC,Staphylococcus aureus [32],0.0078
same,FIC,Staphylococcus aureus [33],0.0036
same,FIC,Staphylococcus aureus [34],0.002
same,FIC,Staphylococcus aureus [35],0.0039
same,FIC,Staphylococcus aureus [36],0.0664
same,FIC,Staphylococcus aureus [37],0.0703
same,FIC,Staphylococcus aureus [38],0.0664
